We go through two compounds from patent US20200129582A1, “NOVEL PEPTIDES AND PEPTIDOMIMETICS” (UNIVERSITY OF AUCKLAND, priority 2016, published 2020).

Test [1] has as its target T1, Connexin43 plaques in ARPE-19 cells (Homo sapiens, UniProt P17302).
T1 construct: a cell line with high endogenous expression of connexin43; endogenous in cells; host or cells: ARPE-19
Kind of test: Immunocytochemistry and quantification of Cx43 plaques. It counts as cell-based. The conditions noted are these: for total Connexin43 expression reduced by, relative to the control: 500 μM; for Connexin43 labelling per cell compared to untreated control (in words): 2- or 6-hour treatment, Peptide5 50-500 μM, LaCl3 and CBX 500 μM; for distribution of Connexin43 plaques: Peptide5 500 μM, FIG. 1A. As to the method:
(§1) ARPE-19 cells were grown until confluent in 8-well glass chamber-slides (BD Falcon). Confluent monolayers of ARPE-19 cells were incubated at a final concentration of 50 to 500 μM Peptide5, 500 μM LaCl3 and 500 μM CBX in culture medium for 2 or 6 hours. Cells were fixed in 4% PFA (ProSciTech) at pH 7.4 for 10 min at room temperature, permeabilized with 0.05% Triton-X100 in PBS, and incubated in 10% normal goat serum to block non-specific labelling. Cells were rinsed three times with PBS containing 0.1 mM CaCl2 between each fixation, permeabilization, and blocking steps. Connexin43 polyclonal rabbit antibody (C6219, Sigma, 1:2000) was applied overnight, followed by a goat anti-rabbit Alexa Fluor® 568 secondary antibody (Invitrogen, 1:200) for 45 minutes. Nuclei were counterstained with DAPI (Invitrogen) at 10,000-fold dilution for 5 mins, and mounted with Citifluor™ mounting medium. Images were visualised and captured using an oil immersion lens (60× magnification, 1.35 numerical aperture) on an Olympus FV1000 upright confocal laser scanning microscope and Olympus FV10-ASW 4.0 software. The Transfluor feature in MetaXpress® Image acquisition and analysis software (Version 5.3.0.1, Molecular Devices) was used to quantify the total area of Connexin43 plaques per image.
as §1

Test [2] addresses T2, hemichannel-mediated ATP release from hCMVEC cells (Homo sapiens, UniProt P17302).
T2 construct: endogenous in cells; host or cells: hCMVEC (human cerebral microvascular endothelial cells)
As to the kind of experiment: In vitro ischemia injury ATP release assay (single alanine substituted and truncated peptides). Type of test: cell-based. As to the method: The human cerebral endothelial cells (hCMVEC) were plated at a density of 0.025×10^6 cells per well in a collagen-coated 12-well plate (1 μg/cm^2) a day prior to the experiment. Cells were incubated in culture medium overnight. Hypoxic, acidic, ion-shifted Ringer injury solution that mimics ionic concentrations and acid-base shifts of the interstitial space in hypoxic-ischemic brains (Bondarenko and Chesler, 2001, […]) was used to trigger hemichannel opening. The injury solution contained (in mM): 38 NaCl, 13 NaHCO3, 3 Na-gluconate, 65 K-gluconate, 38 NMDG-Cl, 1 NaH2PO4, and 1.5 MgCl2. The injury solution was bubbled in 95% N2, 5% CO2 gas (20 L/min) for 5 minutes and pH adjusted to 6.6 before use. The standard ringer solution contained (in mM): 124 NaCl, 3 KCl, 26 NaHCO3, 26 NaHCO3, 1 NaH2PO4, 1.3 CaCl2, 1.5 MgCl2, and 10 Glucose, and pH adjusted to 7.4 before use (Bondarenko and Chesler, 2001). In the ischemia injury model, hCMVEC cells were incubated for 2 hours in 500 μL injury solution+/−Peptide5 (100 μM) (O'Carroll et al., 2008, Cell communication & adhesion 15:27-42; Danesh-Meyer et al., 2012, Brain: a journal of neurology 135:506-520; Davidson et al., 2012, Annals of neurology 71:121-132; Davidson et al., 2013, Experimental neurology 248:301-308; Davidson et al., 2014, PloS one 9:e96558; Davidson et al., 2015, J Cereb Blood Flow Metab), or +/−extracellular loop sequences (Table 5), or modified peptides (Table 2, 3) dissolved in injury solution (500 μL) with a final concentration of 100 μM. For negative control, hCMVEC cells were incubated only in 500 μL standard ringer solution for 2 hours. For positive control, hCMVEC cells were incubated only in 500 μL […] for 2 hours. All incubations were conducted at 37° C. in 95% O2 and 5% CO2. At the end of each experiment, samples were removed and immediately placed on ice. The concentration of ATP in the samples was determined using a Luciferin/luciferase bioluminescence reaction (ATP Determination Kit, Molecular Probes) and detected using a luminescence plate reader (VICTOR X, Perkin Elmer #2030-0010). Standard curves were generated in each experiment from an ATP standard (0 to 500 nM) to convert bioluminescence units to ATP concentration. […] The data is presented as mean±standard error relative to the injury or injury-reperfusion positive control. Statistically significant differences between samples were tested using one-way analysis of variance and Tukey's multiple comparisons test.
Peptides listed in table 5 and 2 were assessed using the ischemia injury model in hCMVEC cells as described above, and the medium was collected for ATP release measurement.
The human cerebral endothelial cells (hCMVEC) were plated at a density of 0.025×10^6 cells per well in a collagen-coated 12-well plate (1 μg/cm^2) a day prior to the experiment. Cells were incubated in culture medium overnight. Hypoxic, acidic, ion-shifted Ringer injury solution that mimics ionic concentrations and acid-base shifts of the interstitial space in hypoxic-ischemic brains (Bondarenko and Chesler, 2001) was used to trigger hemichannel opening. The injury solution contained (in mM): 38 NaCl, 13 NaHCO3, 3 Na-gluconate, 65 K-gluconate, 38 NMDG-Cl, 1 NaH2PO4, and 1.5 MgCl2. The injury solution was bubbled in 95% N2, 5% CO2 gas (20 L/min) for 5 minutes and pH adjusted to 6.6 before use. The standard ringer solution contained (in mM): 124 NaCl, 3 KCl, 26 NaHCO3, 26 NaHCO3, 1 NaH2PO4, 1.3 CaCl2, 1.5 MgCl2, and 10 Glucose, and pH adjusted to 7.4 before use (Bondarenko and Chesler, 2001).

Test [3] concerns the target T3, Connexin43 protein (hemichannels of hCMVEC cells) (Homo sapiens, UniProt P17302).
T3 construct: In the ischemia injury model, hCMVEC cells were incubated for 2 hours; endogenous in cells; host or cells: hCMVEC (human cerebral microvascular endothelial cells)
Type of test: cell-based. The settings on record: agent alone, 100 μM, FIG. 6, injury control 100±3.5%.

Test [4] concerns hemichannels and gap junction channels. The settings on record: O'Carroll et al., 2008; cited from earlier work.

Where “and” joins values, the source holds several entries; their conditions need not be identical. Equal entries are not always repeated. Where two headings read alike, the source gives them in different places.

T2 sequence (P17302 2-382 limits assumed): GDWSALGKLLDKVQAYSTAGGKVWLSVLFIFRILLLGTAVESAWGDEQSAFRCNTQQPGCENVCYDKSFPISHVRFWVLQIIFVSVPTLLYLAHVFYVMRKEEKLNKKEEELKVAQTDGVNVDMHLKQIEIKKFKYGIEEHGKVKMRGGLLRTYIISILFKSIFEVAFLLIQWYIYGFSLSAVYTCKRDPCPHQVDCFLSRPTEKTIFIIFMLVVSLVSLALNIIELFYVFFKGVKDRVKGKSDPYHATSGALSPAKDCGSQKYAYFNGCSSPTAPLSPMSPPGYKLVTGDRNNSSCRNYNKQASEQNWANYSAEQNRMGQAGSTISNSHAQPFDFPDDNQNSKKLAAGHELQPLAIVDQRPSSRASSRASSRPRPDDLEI
T1 sequence (P17302 2-382 limits assumed): as above
T3 sequence (P17302 2-382): as the sequence (P17302 2-382 limits assumed) above

For `CC1(C)[C@@H](OC(=O)CCC(=O)O)CC[C@]2(C)[C@H]3C(=O)C=C4[C@@H]5C[C@@](C)(C(=O)O)CC[C@]5(C)CC[C@@]4(C)[C@]3(C)CC[C@@H]12` [CBX, Carbenoxolone], the results for the “total Connexin43 expression reduced by, relative to the control” value in test [1] (2-hour exposure) and in test [1] (after 6 hours) were 30.0±8.2% and 53.4±8.1%, respectively. The “Connexin43 labelling per cell compared to untreated control (in words)” value in test [1] is on record as “significant reduction”. The “ATP release compared to injury control (in words)” value in test [2] (hCMVEC, 100 μM, FIG. 3) is reported as “significantly reduced ATP release”. For the same compound, the “ATP release, % of the injury control” value was 9.1±10.1% in test [2] (hCMVEC, ischemic injury solution 2 hours, 100 μM, FIG. 3, injury control 100±3.6%) and 13.4±4.8% in test [3].

On to VDCFLSRPTEKT [Peptide5], for which the “Connexin43 labelling per cell compared to untreated control (in words)” value in test [1] is “no significant difference”. In addition, the “distribution of Connexin43 plaques” value in test [1] (2-hour exposure) is listed as “patterns of cytoplasmic streaming”. Also, in test [1] (6-hour exposure), the “distribution of Connexin43 plaques” value was “fragmented”. Moreover, in test [2], the “ATP release compared to injury control (in words)” value is reported as “significantly reduced ATP release”; the “ATP release, % of the injury control” value is 44.6±7.7% and 47.3±5.1%. Further, in test [4], the “high concentration that inhibits both hemichannel and gap junction channel function” value is 500 µM; the “low concentrations that specifically inhibit hemichannels” value was 5 to 50 µM.
